# Source: ChEMBL document CHEMBL3885881, “DrugMatrix”
# Species: Rattus norvegicus
# Experiment: DrugMatrix - Regimen: Daily Repeat
# Assay type: toxicity, organism-based, Sprague-Dawley
# Set-up: regimen Daily Repeat, gender Male, age 6-8 weeks
# Details: in vivo, po, route oral GAVAGE, vehicle 100 % SALINE; for ABSOLUTE EOSINOPHIL / ABSOLUTE LYMPHOCYTE / ABSOLUTE MONOCYTE / ABSOLUTE SEGMENTED NEUTROPHIL / BASOPHIL / EOSINOPHIL / ERYTHROCYTE COUNT / HEMATOCRIT / HEMOGLOBIN / LEUKOCYTE COUNT / LYMPHOCYTE / MEAN CORPUSCULAR HEMOGLOBIN / MEAN CORPUSCULAR HEMOGLOBIN CONCENTRATION / MEAN CORPUSCULAR VOLUME / MONOCYTE / NEUTROPHIL / NUCLEATED RED BLOOD CELLS / PLATELET COUNT / ABSOLUTE BASOPHIL: tissue Blood; for ALANINE AMINOTRANSFERASE / ALBUMIN / ALKALINE PHOSPHATASE / ASPARTATE AMINOTRANSFERASE / BLOOD UREA NITROGEN / CARBON DIOXIDE / CHLORIDE / CHOLESTEROL / CREATINE PHOSPHOKINASE / CREATININE / GLUCOSE / LACTATE DEHYDROGENASE / LIPASE / PHOSPHORUS / POTASSIUM / SODIUM / TOTAL BILIRUBIN / TOTAL PROTEIN / URIC ACID: tissue Plasma
# [1] = 29 mg/kg, 120 h, dose level Low, time 5 day
# [2] = 200 mg/kg, 72 h, dose level High, time 3 day
# [3] = 200 mg/kg, 120 h, dose level High, time 5 day
compound,measurement,setting,value
Cc1ccnc2c1NC(=O)c1cccnc1N2C1CC1 [NEVIRAPINE],ABSOLUTE EOSINOPHIL,[1],0 CELLS/uL
same,ABSOLUTE LYMPHOCYTE,[1],5766.33 CELLS/uL
same,ABSOLUTE MONOCYTE,[1],26.67 CELLS/uL
same,ABSOLUTE SEGMENTED NEUTROPHIL,[1],340.33 CELLS/uL
same,BASOPHIL,[1],0%
same,EOSINOPHIL,[1],0%
same,ERYTHROCYTE COUNT,[1],5.58 x10E6/uL
same,HEMATOCRIT,[1],33.7%
same,HEMOGLOBIN,[1],13.2 G/DL
same,LEUKOCYTE COUNT,[1],6.13 x10E3/uL
same,LYMPHOCYTE,[1],94.33%
same,MEAN CORPUSCULAR HEMOGLOBIN,[1],23.7 pg
same,MEAN CORPUSCULAR HEMOGLOBIN CONCENTRATION,[1],39.2 G/DL
same,MEAN CORPUSCULAR VOLUME,[1],60.4 fL
same,MONOCYTE,[1],0.33%
same,NEUTROPHIL,[1],5.33%
same,NUCLEATED RED BLOOD CELLS,[1],0 /100WBC
same,PLATELET COUNT,[1],1219 x10E3/uL
same,ALANINE AMINOTRANSFERASE,[1],55.67 u/L
same,ALBUMIN,[1],4.23 G/DL
same,ALKALINE PHOSPHATASE,[1],280.33 u/L
same,ASPARTATE AMINOTRANSFERASE,[1],82.33 u/L
same,BLOOD UREA NITROGEN,[1],15.33 mg/dL
same,CARBON DIOXIDE,[1],34.33 mmol/L
same,CHLORIDE,[1],98.67 MEQ/L
same,CHOLESTEROL,[1],74.33 mg/dL
same,CREATINE PHOSPHOKINASE,[1],403.67 u/L
same,CREATININE,[1],0.39 mg/dL
same,GLUCOSE,[1],132.33 mg/dL
same,LACTATE DEHYDROGENASE,[1],98.67 u/L
same,LIPASE,[1],11 u/L
same,PHOSPHORUS,[1],10.8 mg/dL
same,POTASSIUM,[1],6.38 MEQ/L
same,SODIUM,[1],144.43 MEQ/L
same,TOTAL BILIRUBIN,[1],0.17 mg/dL
same,TOTAL PROTEIN,[1],5.7 G/DL
same,URIC ACID,[1],0.87 mg/dL
same,ABSOLUTE BASOPHIL,[2],0 CELLS/uL
same,ABSOLUTE EOSINOPHIL,[2],0 CELLS/uL
same,ABSOLUTE LYMPHOCYTE,[2],4383.33 CELLS/uL
same,ABSOLUTE MONOCYTE,[2],11.67 CELLS/uL
same,ABSOLUTE SEGMENTED NEUTROPHIL,[2],905 CELLS/uL
same,BASOPHIL,[2],0%
same,EOSINOPHIL,[2],0%
same,ERYTHROCYTE COUNT,[2],5.28 x10E6/uL
same,HEMATOCRIT,[2],32.53%
same,HEMOGLOBIN,[2],12.53 G/DL
same,LEUKOCYTE COUNT,[2],5.3 x10E3/uL
same,LYMPHOCYTE,[2],83%
same,MEAN CORPUSCULAR HEMOGLOBIN,[2],23.9 pg
same,MEAN CORPUSCULAR HEMOGLOBIN CONCENTRATION,[2],38.7 G/DL
same,MEAN CORPUSCULAR VOLUME,[2],61.8 fL
same,MONOCYTE,[2],0.33%
same,NEUTROPHIL,[2],16.67%
same,NUCLEATED RED BLOOD CELLS,[2],0.67 /100WBC
same,PLATELET COUNT,[2],1104 x10E3/uL
same,ALANINE AMINOTRANSFERASE,[2],63 u/L
same,ALBUMIN,[2],4.4 G/DL
same,ALKALINE PHOSPHATASE,[2],260.67 u/L
same,ASPARTATE AMINOTRANSFERASE,[2],84.67 u/L
same,BLOOD UREA NITROGEN,[2],16.33 mg/dL
same,CARBON DIOXIDE,[2],27.67 mmol/L
same,CHLORIDE,[2],101.67 MEQ/L
same,CHOLESTEROL,[2],85.33 mg/dL
same,CREATINE PHOSPHOKINASE,[2],227 u/L
same,CREATININE,[2],0.11 mg/dL
same,GLUCOSE,[2],145 mg/dL
same,LACTATE DEHYDROGENASE,[2],139.67 u/L
same,LIPASE,[2],12.33 u/L
same,PHOSPHORUS,[2],10.8 mg/dL
same,POTASSIUM,[2],5.63 MEQ/L
same,SODIUM,[2],147 MEQ/L
same,TOTAL BILIRUBIN,[2],0.13 mg/dL
same,TOTAL PROTEIN,[2],5.9 G/DL
same,URIC ACID,[2],1.03 mg/dL
same,ABSOLUTE BASOPHIL,[3],0 CELLS/uL
same,ABSOLUTE EOSINOPHIL,[3],0 CELLS/uL
same,ABSOLUTE LYMPHOCYTE,[3],5735 CELLS/uL
same,ABSOLUTE MONOCYTE,[3],88 CELLS/uL
same,ABSOLUTE SEGMENTED NEUTROPHIL,[3],443.67 CELLS/uL
same,BASOPHIL,[3],0%
same,EOSINOPHIL,[3],0%
same,ERYTHROCYTE COUNT,[3],5.22 x10E6/uL
same,HEMATOCRIT,[3],33.87%
same,HEMOGLOBIN,[3],13.47 G/DL
same,LEUKOCYTE COUNT,[3],6.27 x10E3/uL
same,LYMPHOCYTE,[3],91.67%
same,MEAN CORPUSCULAR HEMOGLOBIN,[3],25.83 pg
same,MEAN CORPUSCULAR HEMOGLOBIN CONCENTRATION,[3],39.8 G/DL
same,MEAN CORPUSCULAR VOLUME,[3],64.77 fL
same,MONOCYTE,[3],1.33%
same,NEUTROPHIL,[3],7%
same,NUCLEATED RED BLOOD CELLS,[3],0.67 /100WBC
same,PLATELET COUNT,[3],1370.67 x10E3/uL
same,ALANINE AMINOTRANSFERASE,[3],55.67 u/L
same,ALBUMIN,[3],4.03 G/DL
same,ALKALINE PHOSPHATASE,[3],286 u/L
same,ASPARTATE AMINOTRANSFERASE,[3],87 u/L
same,BLOOD UREA NITROGEN,[3],13 mg/dL
same,CARBON DIOXIDE,[3],33.67 mmol/L
same,CHLORIDE,[3],99 MEQ/L
same,CHOLESTEROL,[3],89.33 mg/dL
same,CREATINE PHOSPHOKINASE,[3],578.67 u/L
same,CREATININE,[3],0.38 mg/dL
same,GLUCOSE,[3],136 mg/dL
same,LACTATE DEHYDROGENASE,[3],142 u/L
same,LIPASE,[3],10.33 u/L
same,PHOSPHORUS,[3],10.57 mg/dL
same,POTASSIUM,[3],6.07 MEQ/L
same,SODIUM,[3],146.23 MEQ/L
same,TOTAL BILIRUBIN,[3],0.13 mg/dL
same,TOTAL PROTEIN,[3],6.13 G/DL
same,URIC ACID,[3],0.63 mg/dL
